Assay results from the Deep4Chem optical property database.
Blank lines part the entries; values can stand above or below the compound they belong to.

Test: photoluminescence quantum yield (fraction); solvent given as SMILES

SMILES: CN(C)c1ccc(/C=C/C=N/N=C/c2ccc3ccc4cccc5ccc2c3c45)cc1
- photoluminescence quantum yield (in CC#N): 0.032
- photoluminescence quantum yield (in CC(C)(C)O): 0.02
- photoluminescence quantum yield (in CC(C)=O): 0.01
- photoluminescence quantum yield (in CC(C)O): 0.015
- photoluminescence quantum yield (in CCCCO): 0.018
- photoluminescence quantum yield (in CO): 0.025
- photoluminescence quantum yield (in CS(C)=O): 0.044
- photoluminescence quantum yield (in ClC(Cl)Cl): 0.007
- photoluminescence quantum yield (in ClCCl): 0.008
- photoluminescence quantum yield (in O): 0.016

SMILES: CCn1c2ccccc2c2cc(-c3cc(-c4ccc5c(c4)c4ccccc4n5CC)nc(-c4ccc(C#N)cc4)n3)ccc21
- photoluminescence quantum yield (in C1CCOC1): 0.08
- photoluminescence quantum yield (in CCOC(C)=O): 0.09
- photoluminescence quantum yield (in CN(C)C=O): 0.07
- photoluminescence quantum yield (in Cc1ccccc1): 0.34
- photoluminescence quantum yield (in ClCCl): 0.11

SMILES: CC(=O)c1nc(-c2ccc(N(C)C)cc2)oc1C
- photoluminescence quantum yield (in CC#N): 0.029
- photoluminescence quantum yield (in CCO): 0.019
- photoluminescence quantum yield (in CCOC(C)=O): 0.03
- photoluminescence quantum yield (in CCOCC): 0.016
- photoluminescence quantum yield (in ClCCl): 0.044

SMILES: N#Cc1c(-n2c3ccccc3c3cc(Br)ccc32)c(C#N)c(-n2c3ccccc3c3cc(Br)ccc32)c(-n2c3ccccc3c3cc(Br)ccc32)c1-n1c2ccccc2c2cc(Br)ccc21
- photoluminescence quantum yield (in Cc1ccccc1): 0.85

SMILES: CCCCc1ccc(-n2c3c(c4c2c2c(n4-c4ccc(CCCC)cc4)-c4ccc(C(F)(F)F)cc4NB2c2ccccc2)B(c2ccccc2)Nc2cc(C(F)(F)F)ccc2-3)cc1
- photoluminescence quantum yield (in Cc1ccccc1): 0.78

SMILES: CC1=C(C#Cc2ccc(B(c3c(C)cc(C)cc3C)c3c(C)cc(C)cc3C)cc2)C(C)=[N+]2C1=C(c1ccccc1)c1c(C)c(C#Cc3ccc(B(c4c(C)cc(C)cc4C)c4c(C)cc(C)cc4C)cc3)c(C)n1[B-]2(F)F
- photoluminescence quantum yield (in ClCCl): 0.65

SMILES: Cc1cc(C2=C(c3cc(C)sc3C)S(=O)(=O)c3ccccc32)c(C)s1
- photoluminescence quantum yield (in C1CCOC1): 0.016

SMILES: NCCCCCCCCCCCCN1C(=O)c2ccc3c4ccc5c6c(ccc(c7ccc(c2c37)C1=O)c64)C(=O)N(CCCCCCCCCCCCN)C5=O
- photoluminescence quantum yield (in CN(C)C=O): 0.83

SMILES: CCCCc1cc(CCCC)c2ccc3c(CCCC)cc(CCCC)c4ccc1c2c43
- photoluminescence quantum yield (in CCCCCC): 0.55
- photoluminescence quantum yield (in CO): 0.67
- photoluminescence quantum yield (in ClCCl): 0.61

SMILES: N#Cc1c(-n2c3ccccc3c3cc(I)ccc32)c(C#N)c(-n2c3ccccc3c3cc(I)ccc32)c(-n2c3ccccc3c3cc(I)ccc32)c1-n1c2ccccc2c2cc(I)ccc21
- photoluminescence quantum yield (in Cc1ccccc1): 0.78

SMILES: c1cc2ccc3ccc4cc3c2cc1c1ccc2ccc3ccc(cc3c2c1)c1ccc2ccc3ccc4cc3c2c1
- photoluminescence quantum yield (in Cc1ccccc1): 0.75

SMILES: FC(F)(F)C(F)(F)C(F)(F)C(F)(F)C(F)(F)C(F)(F)C(F)(F)C(F)(F)CCOc1nnc(Cl)nn1
- photoluminescence quantum yield (in ClCCl): 0.44
- photoluminescence quantum yield (in OCC(F)(F)F): 0.28

SMILES: COc1ccc(N(c2ccc(C=C(c3ccccc3)c3ccccc3)cc2)c2ccc(OC)cc2)cc1
- photoluminescence quantum yield (in Cc1ccccc1): 0.01

SMILES: CC/[NH+]=c1\cc2oc3cc(NCCOC(=O)C(NC(=O)OC(C)(C)C)C(C)C)c4ccccc4c3nc-2cc1C (stereo unspecified)
- photoluminescence quantum yield (in CCO): 0.32
- photoluminescence quantum yield (in O): 0.26

SMILES: CCN(CC)c1ccc2cc(/C=C/C(=C(C#N)C#N)c3ccc4c(c3)c3ccccc3n4CC)c(=O)oc2c1
- photoluminescence quantum yield (in CC(C)=O): 0.174
- photoluminescence quantum yield (in CCOC(C)=O): 0.125
- photoluminescence quantum yield (in CN(C)C=O): 0.194
- photoluminescence quantum yield (in CS(C)=O): 0.185
- photoluminescence quantum yield (in Cc1ccccc1): 0.041
- photoluminescence quantum yield (in ClCCl): 0.146

SMILES: CCN(CC)c1ccc(-c2ccc(-c3nc4ccccc4c(=O)[nH]3)s2)cc1
- photoluminescence quantum yield (in CC#N): 0.28
- photoluminescence quantum yield (in Cc1ccccc1): 0.71

SMILES: O=c1oc2ccccc2cc1-c1cc2ccccc2o1
- photoluminescence quantum yield (in CC#N): 0.75
- photoluminescence quantum yield (in CCOC(C)=O): 0.79
- photoluminescence quantum yield (in CS(C)=O): 0.99
- photoluminescence quantum yield (in Cc1ccccc1): 0.88
- photoluminescence quantum yield (in O): 0.15

SMILES: CCCCN1C(=S)c2cccc3cccc(c23)C1=S
- photoluminescence quantum yield (in Cc1ccccc1): 0.01

SMILES: CN(C)c1ccc(/C=C2\OC(=O)c3cc(N)ccc32)cc1
- photoluminescence quantum yield (in CC#N): 0.24
- photoluminescence quantum yield (in CC(C)=O): 0.26
- photoluminescence quantum yield (in CC(C)CO): 0.36
- photoluminescence quantum yield (in CC(C)O): 0.31
- photoluminescence quantum yield (in CCCO): 0.28
- photoluminescence quantum yield (in CCO): 0.22
- photoluminescence quantum yield (in CCOC(C)=O): 0.37
- photoluminescence quantum yield (in CCOCC): 0.4
- photoluminescence quantum yield (in CO): 0.22

SMILES: CC(C)CCC[C@@H](C)[C@H]1CC[C@H]2[C@@H]3CC=C4C[C@@H](OC(=O)Oc5cc(/C=C/C=C/c6ccc(N(C)C)cc6)ccc5[N+](=O)[O-])CC[C@]4(C)[C@H]3CC[C@]12C
- photoluminescence quantum yield (in C1CCCCC1): 0.29
- photoluminescence quantum yield (in C1COCCO1): 0.08
- photoluminescence quantum yield (in CCCCCCC): 0.28
- photoluminescence quantum yield (in Cc1ccccc1): 0.17

SMILES: COCCOCCOCCOCCOc1cc(C=O)c(OCCOCCOCCOCCOC)cc1C=O
- photoluminescence quantum yield (in CC(C)(C)O): 0.12
- photoluminescence quantum yield (in CC(C)CO): 0.1
- photoluminescence quantum yield (in CC(C)O): 0.11
- photoluminescence quantum yield (in CCCCO): 0.09
- photoluminescence quantum yield (in CCCO): 0.14
- photoluminescence quantum yield (in CCO): 0.18
- photoluminescence quantum yield (in CN(C)C=O): 0.04
- photoluminescence quantum yield (in CNC=O): 0.05
- photoluminescence quantum yield (in CO): 0.22
- photoluminescence quantum yield (in NC=O): 0.31
- photoluminescence quantum yield (in O): 0.55

SMILES: c1ccc2c(c1)Oc1ccccc1N2c1ccc2c(c1)c1ccccc1n1c3ccccc3nc21
- photoluminescence quantum yield (in O=P(c1ccccc1)(c1ccccc1)c1ccccc1Oc1ccccc1P(=O)(c1ccccc1)c1ccccc1): 0.8

SMILES: CN(C)c1ccc(C2=Cc3cccc[n+]3[B-](F)(F)O2)cc1
- photoluminescence quantum yield (in C1CCOC1): 0.684
- photoluminescence quantum yield (in C1COCCO1): 0.794
- photoluminescence quantum yield (in CC1CCCCC1): 0.519
- photoluminescence quantum yield (in CC#N): 0.517
- photoluminescence quantum yield (in CCOC(C)=O): 0.699
- photoluminescence quantum yield (in CCOCC): 0.868
- photoluminescence quantum yield (in CN(C)C=O): 0.382
- photoluminescence quantum yield (in CO): 0.454
- photoluminescence quantum yield (in COC(C)=O): 0.569
- photoluminescence quantum yield (in ClC(Cl)Cl): 0.705

SMILES: O=C1c2ccccc2C(=O)c2cc(-c3ccc(N(c4ccccc4)c4ccccc4)cc3)ccc21
- photoluminescence quantum yield (in CCCCCC): 0.392
- photoluminescence quantum yield (in CCOC(C)=O): 0.0001
- photoluminescence quantum yield (in CCOCC): 0.0129
- photoluminescence quantum yield (in Cc1ccccc1): 0.092
- photoluminescence quantum yield (in ClC(Cl)(Cl)Cl): 0.326
- photoluminescence quantum yield (in ClCCl): 0

SMILES: COc1cc2c(cc1OC)C1=C[C@H](c3ccccc3)C3(C(C#N)=C(C#N)N1CC2)c1cc(Br)ccc1-c1ccc(Br)cc13
- photoluminescence quantum yield (in ClCCl): 0.00059

Results, then the compound that gave them:

- photoluminescence quantum yield (in CCO): 0.0155
- photoluminescence quantum yield (in ClCCl): 0.0368
- photoluminescence quantum yield (in O): 0.101
SMILES: Oc1ccccc1-c1nc2ccccc2s1

- photoluminescence quantum yield (in CC#N): 0.05
- photoluminescence quantum yield (in CCCCCC): 0.04
SMILES: C/C=C/c1cc(OC)cc(OC)c1

- photoluminescence quantum yield (in CC1CCCO1): 0.3
SMILES: Cn1c2nc(=O)[nH]c(=O)c-2nc2ccccc21

- photoluminescence quantum yield (in ClC(Cl)Cl): 0.62
SMILES: CCCN1c2ccccc2Sc2cc(/C=C\c3cc(=O)oc4cc(NC(=O)OCC)ccc34)ccc21

- photoluminescence quantum yield (in CC#N): 0.031
SMILES: COc1ccc(-c2csc(/C(C#N)=C/c3ccc(Cl)cc3Cl)n2)cc1

- photoluminescence quantum yield (in ClCCl): 0.025
SMILES: COc1ccc(-c2cn3cc(C)c[n+]3[n-]2)cc1

- photoluminescence quantum yield (in O): 0.001
SMILES: O=c1ccc2ccccc2o1

- photoluminescence quantum yield (in CC#N): 0.18
- photoluminescence quantum yield (in ClCCCl): 0.1
SMILES: c1ccc(-c2cc3c(oc4ccccc43)c(-c3ccccc3)[o+]2)cc1

- photoluminescence quantum yield (in ClCCl): 0.62
SMILES: CCCCn1c(-c2ccc(-c3nnc(-c4cccs4)o3)cc2)nc2c3ccccc3c3ccccc3c21

- photoluminescence quantum yield (in CCO): 0.55
SMILES: COC(=O)C(NC(=O)CCNc1cccc2ccccc12)c1ccccc1 (stereo unspecified)

- photoluminescence quantum yield (in ClC(Cl)Cl): 0.41
SMILES: Ic1ccc(C2=C3C=CC4=[N+]3[B-]3(Oc5ccccc54)Oc4ccccc4-c4ccc2n43)cc1 (stereo unspecified)

- photoluminescence quantum yield (in CO): 0.0028
- photoluminescence quantum yield (in OCC(O)CO): 0.0011
- photoluminescence quantum yield (in OCCO): 0.0014
- photoluminescence quantum yield (in Oc1ccccc1): 4.3e-05
SMILES: CN(CCO)c1ccc(/N=N/c2ccc([N+](=O)[O-])cc2)cc1

- photoluminescence quantum yield (in C1CCOC1): 0.07
SMILES: c1cc2c3c4c5c(cccc5cc3c1)-c1cccn1B4n1cccc1-2
